Values of other authors as cited in paper PMC5959268 (Journal of medicinal chemistry, 2016).
Where a name gives a salt, the structure may show the parent alone. *1 amine or outer side, *2 acyl side, *3 side chain or, on linkers, in order; H or OH if unused. Where no end group is shown, it is not given here. [ ]: non-standard residue; d: D form. Tyr(125I) = tyrosine labelled with iodine-125, O=C([C@H](Cc1ccc(O[*:3])c([125I])c1)N[*:1])[*:2]

Legend:
[1] = test system: hair regrowth; details: aging CRF-overexpressing mice
[2] = test system: CRF-stimulated ACTH release by cultured rat anterior pituitary cells; details: rat pituitary cells in culture and adrenalectomized rats
[3] = target: CRF-R1; details: read-out: Kd of tracer at CRF-R1; saturation binding of radioligand

| Compound | hair regrowth [1] | other results |
| --- | --- | --- |
| CCCCN(CC)c1nc(C)nc2c1c(C)c(C)n2-c1c(C)cc(C)cc1C [antalarmin, N-butyl-N-ethyl-2,5,6-trimethyl-7-(2,4,6-trimethylphenyl)-7H-pyrrolol[2,3-d]pyrimidin-4-amine hydrochloride] | spotty results | – |
| [D-Phe^12,Nle^21,38]-h/rCRF(12–41) | – | potency relative to α-helical-CRF(9–41) at inhibiting release of ACTH [2]: ~ 18 times |
| [^125ITyr^0-Glu^1]-PD-Svg YEGTSLDLTFDLLRHNLEIAKQEALKKQAAKNRLLLDTI-NH2 ([Tyr(125I)]EGTSLDLTFDLLRHNLEIAKQEALKKQAAKNRLLLDTI-NH2) | – | Kd [3]: 0.42 nM |
| Nc1cc(N2CCCCC2)nc(N)[n+]1[O-] [minoxidil, 2,4-pyrimidinediamine, 6-(1-piperidinyl)-, 3-oxide] | spotty results | – |
